The nature of data set [1]: Stability / hydrolysis in PBS at 37 degrees (Example 6). It counts as physicochemical. The procedure:
Samples were analyzed using HPLC UV.

Data set [2] is described as follows: Skin and fat penetration assay, cubes of human fat with skin (Example 8). It counts as in vitro ADME. Particulars: 0.25 ml hydrogel applied once, 20 hrs. On the procedure: Cubes of human fat (5×5×5 cm) with skin attached from obese female subjects that underwent esthetic surgery was dissected at 4° C. Cubes were transferred to containers so the skin would overlay the rim of the container. 0.25 ml of hydrogels comprising 2.75 mg/ml free octopamine, 5 mg/ml octopamine decanoate or 3.98 mg/ml octopamine pentanoate were applied once and left to penetrate for 20 hrs. Cubes were subsequently frozen at −80° C.
Upon defrosting, skin was carefully removed taking care not to contaminate the underlying fat. The fat was dissected to yield a column of 1×1 cm of fat that was directly under the site of application. The column was sliced to yield 0.5 cm thick slices covering 0-2cm fat depth under the site of application. Tissue was sonicated in 5 ml PBS (5 mM glucose), samples were spun down (13000 rpm for 30 min at 4° C.). Clear supernatant was removed with an injection needle and syringe and frozen until analysis. Analysis of octopamine was performed as described in Example 7.

The nature of data set [3]: Plasma levels of octopamine in human volunteers (Example 10). It counts as in vivo. Particulars: humans, 2.5 ml or 5 ml hydrogel. On the procedure: After thorough washing of hands, blood was sampled using […]. Blood (40 microliter) was sampled using a capillary that protruded the cap of the vial and spun down into 300 microliter vials containing 10 microliter of heparin 20 IE/ml. Plasma was pipetted off and transferred to 300 microliter vials and stored at -20° C. until analysis. Octopamine was analyzed as described in Example 7. […] FIG. 17b), and of octopamine pentanoate (3.98 mg/ml, 2.5 ml, once daily); FIG. 17c). Experiments are an average of one or two experiments (n=1-2).

For the next data set, the system named is human subject. The data set is described as follows: Removal of cellulite on a human subject (Example 11). It counts as in vivo. Particulars: hydrogel 3.98 mg/ml, 5 ml once daily, area with moderate cellulite, after three days. The procedure:
A hydrogel comprising 3.98 mg/ml octopamine pentanoate (5 ml) was applied once daily on a human subject in an area with moderate cellulite.

In data set [4] the test system is human volunteers. Description: Blood pressure, heart rate and side effects in human volunteers (Example 10). As to conditions: humans, topical hydrogel treatment regimes.
A further data set relates to human fat suspension. Description: In vitro assay of glycerol production in human fat (Example 3). As to conditions: end concentration 1 microM, 2 hours at 37 degrees Celsius; P=0.10. It counts as cell-based. The procedure:
Human fat tissue was pottered using a teflon potter in 10 ml PBS with 6 mM Glucose (2.4 gram fat tissue per 10 ml). The suspension was transferred to a 50 ml beaker and was gently stirred at 37 degrees Celsius to maintain the homogeneous nature. 0.3 ml suspension was transferred to 2 ml reaction vials, spiked with octopamine (end concentration 1 microM) and octopamine decanoate (end concentration 10 microM and PBS/glucose were added until 2 ml end volume. Vials were incubated at 37 degrees Celsius for 2 hours.
Samples were spun off at 4000 rpm for 2 min and 10 microliter samples were taken after removal of floating fat with a tissue.
Samples were analyzed using an enzymatic kit (Sigma Aldrich) and fluorescence intensity was measured using direct flow injection (Vici valve in combination with Shimadzu 10 ADvp HPLC pump at 0.15 ml/min, thermo 15*2.1 C18 column prior to valve and using ultrapure water as mobile phase) of 20 microliter into a HPLC fluorescence detector (Shimadzu RF 10Ax1). Calibration was performed by preparation of calibration samples 2-1000 microM.

Data set [5] is described as follows: Skin penetration chamber, human skin (Example 7). It counts as in vitro ADME. Particulars: 0.25 ml hydrogel 2.75 mg/ml, human skin 6.25 cm^2, 2 hours. On the procedure:
The chamber was thermostated at 37° C. Samples were drawn from the PBS pottered tissue with a 1 ml syringe and analyzed using LC-mass spectrometry. Given the full conversion, this assay evaluates the total penetration of octopamine prodrug through skin based on equal amounts of octopamine, and compares this to the penetration of an equal amount of octopamine itself. Samples were analyzed using HPLC masspectrometry. A Shimadzu HPLC (LC20AD pump and […] injector) was used in conjunction with a sciex API 4000 Masspectrometer. The HPLC column was a Phenomenex, Synergi Max (BOL-P-RP2.5-036), 3.0×100mm, […], thermostated at 35° C. The mobile phase consisted of Eluent A: 0.1% formic acid (“FA”) in ultrapure water (“UP”) and Eluent B: 70% acetonitrile (“ACN”) +0.1% FA at a total flow of 0.3 ml/min. […] UP/ACN/FA =50/50/0.1. […] Gradients were maintained at 100% B for 0.5 minute. […] Samples were centrifugated for 5 mins at 13000 rpm and 14 μL 0.1% FA in UP was added to 6 μL supernatant and vortexed for 10 sec. The autoinjector was programmed to add 20 μl 0.5 mg/ml […] reagent (online) and inject 35 μl. The […] reagent was prepared by dissolving 5 mg […] in 4.5 ml UP, 5 ml 0.25 M NaHCO3, 0.5 ml methanol (“MeOH”) and 20 microliter 2-mercapto-ethanol.

The test system of data set [6] is human volunteers. Description: Application on human volunteers: waistline and skinfold (Example 10). As to conditions: same molar concentration. It counts as in vivo. The procedure: For abdominal/hip experiments 2 male volunteers […] (BMI 25.5 and 28 resp.) monitored belly circumference, and skinfold at belly and hip on a daily basis (8 am mornings). Blood pressure and body weight was monitored daily. […] Hydrogel was applied daily or twice daily as indicated using a 5 ml syringe to measure volume. For abdominal experiments, the indicated volume of hydrogel was applied on the belly around the belly button in a radius of 10 cm. The same volume was applied for hip areas. For leg experiments, 2.5 ml was applied on each leg. Skinfold was assessed by measuring thickness of skin at hips and belly 4 cm from belly button using a skinfold measuring device ([…]-120). […] Experiments are the average of two experiments (n=2). […] Experiments are an average of 2 or 3 runs (n=2-3).

Regarding `CCCCC(=O)Oc1ccc(C(O)CN)cc1.Cl` (stereo not shown) [octopamine pentanoate, 4-(2-amino-1-hydroxyethyl)phenyl valeroate hydrochloride], the “Hydrolysis in PBS compared with plasma or fat tissue” value in data set [1] (PBS at 37 degrees) is “much lower rate”. For the same compound, in data set [2], the “Concentrations of free octopamine in fat layers (0-2 cm depth) compared with hydrogel comprising octopamine” value was “higher concentrations”; the “Penetration through skin and fat tissue” value is “penetrate through both skin and fat tissue”. Besides, in data set [3], the “Plasma levels of free octopamine upon administration of hydrogel” value is given as “did not result in unacceptable plasma levels”. The Cellulite entry with human subject is given as “noticeably decreased”. The Side effects result in the data set with human volunteers [4] is reported as “no side effects were reported”.
Consider p-Octopamine [reference compound], for which the “Glycerol production (levels)” value with human fat suspension is recorded as “increased”. Moreover, the “Stability in PBS” value in data set [1] is given as “stable”. Also, the “Penetration of octopamine through skin” value in data set [5] is given as “minor penetration”. The “Penetration through skin and fat tissue” value in data set [2] is “penetrate through both skin and fat tissue”. Moreover, the Decrease of waistline result was “without effect” with human volunteers [6] (humans n=2, hydrogel on belly and hips, 2.5 ml once daily or 5 ml twice daily, after 16 days); “without effect” in the data set on human volunteers [6] (single individual, hydrogel on belly and hips, after 21 days). The “Plasma levels of free octopamine upon administration of hydrogel” value in data set [3] was “acceptable systemic concentrations”.

Source of the values: patent US20210220241A1, “Body Sculpting” (Sculpt B.V., priority 2014, published 2021).
